Experimental data from article PMC2745596 (Bioorganic & Medicinal Chemistry Letters, 2008).

How the values were obtained:
SARS-CoV Urbani strain = type: cell-based
SARS-CoV 3CLpro = SARS-CoV 3CLpro (Severe acute respiratory syndrome coronavirus, UniProt P0C6X7); type: biochemical

SMILES: O=C(On1nnc2ccccc21)c1ccc2[nH]ccc2c1 [Inhibitor 3]
- antiviral activity (in words) (SARS-CoV Urbani strain): did not exhibit any antiviral activity

SMILES: O=C(Oc1cncc(Cl)c1)c1cccc2[nH]ccc12 [Inhibitor 10]
- potency enhancement over 5 (enzyme IC50) (SARS-CoV 3CLpro): 10 fold
